# Reference: patent US20240018145A1, “[…]-DEPENDENT EN[…] TREATING OR […]” (priority 2020, published 2024)
# Where two headings read alike, the source gives them in different places.
# Test system: FLU A (PR/8/34)
# Assay: Flu A Neuraminidase Antiviral Assay
# Format: cell-based
SMILES,EC50,"EC50 (MDCK, 48 h)"
"CN1C(=O)c2c(O)c(=O)ccn2N2C1CCCC2(C)c1ccc(F)cc1 (single isomer, unassigned) [Compound 26B, 1-(4-fluorophenyl)-7-hydroxy-1,5-dimethyl-1,2,3,4,4a,5-hexahydrodipyrido[1,2-b:2′,1′-f][1,2,4]triazine-6,8-dione]",1.8 µM,–
"Cc1cccc(F)c1C1C(CC(F)(F)F)CCC2N(C)C(=O)c3c(O)c(=O)ccn3N12 (single isomer, unassigned) [Compound 77A, 1-(2-fluoro-6-methylphenyl)-7-hydroxy-5-methyl-2-(2,2,2-trifluoroethyl)-1,2,3,4,4a,5-hexahydrodipyrido[1,2-b:2′,1′-f][1,2,4]triazine-6,8-dione]",0.0033 µM,–
"CN1C(=O)c2c(O)c(=O)ccn2N2C(c3ccccc3C(F)(F)F)CCCC12 (single isomer, unassigned) [Compound 14A, 7-hydroxy-5-methyl-1-(2-(trifluoromethyl)phenyl)-1,2,3,4,4a,5-hexahydrodipyrido[1,2-b:2′,1′-f][1,2,4]triazine-6,8-dione]",–,> 8.1 µM
"CN1C(=O)c2c(O)c(=O)ccn2N2C(c3ccccc3)C(CC(C)(F)F)CCC12 (single isomer, unassigned) [Compound 126A, 2-(2,2-difluoropropyl)-7-hydroxy-5-methyl-1-phenyl-1,2,3,4,4a,5-hexahydrodipyrido[1,2-b:2′,1′-f][1,2,4]triazine-6,8-dione]",> 8.1 µM,–
"O=C1c2c(O)c(=O)ccn2N2C(c3ccccc3)CCCC2N1CC1CC1 (single isomer, unassigned) [Compound 56A, 5-(cyclopropylmethyl)-7-hydroxy-1-phenyl-1,2,3,4,4a,5-hexahydrodipyrido[1,2-b:2′,1′-f][1,2,4]triazine-6,8-dione]",> 8.1 µM,–
"CN1C(=O)c2c(O)c(=O)ccn2N2C(c3ccccc3F)C(CC(F)F)CCC12 (single isomer, unassigned) [Compound 113A, 2-(2,2-difluoroethyl)-1-(2-fluorophenyl)-7-hydroxy-5-methyl-1,2,3,4,4a,5-hexahydrodipyrido[1,2-b:2′,1′-f][1,2,4]triazine-6,8-dione]",3.45 µM,–
"CN1C(=O)c2c(O)c(=O)ccn2N2C(c3ccccc3Br)C(CC(F)(F)F)CCC12 (single isomer, unassigned) [Compound 89B, 1-(2-bromophenyl)-7-hydroxy-5-methyl-2-(2,2,2-trifluoroethyl)-1,2,3,4,4a,5-hexahydrodipyrido[1,2-b:2′,1′-f][1,2,4]triazine-6,8-dione]",0.0024 µM,–
"CN1C(=O)c2c(O)c(=O)ccn2N2[C@H](c3ccccc3)[C@H](OCC(F)F)CC[C@@H]12 (single isomer, unassigned) [Compound 153B]",0.0944 µM,–
"Cc1cccc(F)c1C1C(CC(F)(F)F)CCC2N(C)C(=O)c3c(O)c(=O)ccn3N12 (single isomer, unassigned) [Compound 77C, 1-(2-fluoro-6-methylphenyl)-7-hydroxy-5-methyl-2-(2,2,2-trifluoroethyl)-1,2,3,4,4a,5-hexahydrodipyrido[1,2-b:2′,1′-f][1,2,4]triazine-6,8-dione]",> 0.81 µM,–
"CC1(c2cc(C(F)(F)F)ccn2)CCCC2N(CC3(C(F)(F)F)CC3)C(=O)c3c(O)c(=O)ccn3N21 (single isomer, unassigned) [Compound 52A, 7-hydroxy-1-methyl-5-((1-(trifluoromethyl)cyclopropyl)methyl)-1-(4-(trifluoromethyl)pyridin-2-yl)-1,2,3,4,4a,5-hexahydrodipyrido[1,2-b:2′,1′-f][1,2,4]triazine-6,8-dione]",0.114 µM,–
"CN1C(=O)c2c(O)c(=O)ccn2N2C(c3ccccc3)C(C3CC3(F)F)CCC12 (single isomer, unassigned) [Compound 105A, 2-(2,2-difluorocyclopropyl)-7-hydroxy-5-methyl-1-phenyl-1,2,3,4,4a,5-hexahydrodipyrido[1,2-b:2′,1′-f][1,2,4]triazine-6,8-dione]",–,0.413 µM
"Cc1cc(=O)c(O)c2n1N1C(c3ccccc3)C(CC(F)(F)F)CCC1N(C)C2=O (single isomer, unassigned) [Compound 132C, 7-hydroxy-5,10-dimethyl-1-phenyl-2-(2,2,2-trifluoroethyl)-1,2,3,4,4a,5-hexahydrodipyrido[1,2-b:2′,1′-f][1,2,4]triazine-6,8-dione]",> 0.81 µM,–
"CC1CCC2N(C)C(=O)c3c(O)c(=O)ccn3N2C1(C)c1ccccc1 (single isomer, unassigned) [Compound 29A, 7-hydroxy-1,2,5-trimethyl-1-phenyl-1,2,3,4,4a,5-hexahydrodipyrido[1,2-b:2′,1′-f][1,2,4]triazine-6,8-dione]",1.86 µM,–
"CN1C(=O)c2c(O)c(=O)ccn2N2C(c3ccccc3C3CC3)C(CC(F)(F)F)CCC12 (single isomer, unassigned) [Compound 107A, 1-(2-cyclopropylphenyl)-7-hydroxy-5-methyl-2-(2,2,2-trifluoroethyl)-1,2,3,4,4a,5-hexahydrodipyrido[1,2-b:2′,1′-f][1,2,4]triazine-6,8-dione]",4.8 µM,–
"CN1C(=O)c2c(O)c(=O)ccn2N2C(c3ccc(F)cc3)C(CC(F)(F)F)CCC12 (single isomer, unassigned) [Compound 122B, 1-(4-fluorophenyl)-7-hydroxy-5-methyl-2-(2,2,2-trifluoroethyl)-1,2,3,4,4a,5-hexahydrodipyrido[1,2-b:2′,1′-f][1,2,4]triazine-6,8-dione]",0.0052 µM,–
"CCN1C(=O)c2c(O)c(=O)ccn2N2C(c3ccccc3)C(CCC(F)F)CCC12 (single isomer, unassigned) [Compound 110A, 2-(3,3-difluoropropyl)-5-ethyl-7-hydroxy-1-phenyl-1,2,3,4,4a,5-hexahydrodipyrido[1,2-b:2′,1′-f][1,2,4]triazine-6,8-dione]",1.12 µM,–
"CCN1C(=O)c2c(O)c(=O)ccn2N2C(c3ccccc3Br)C(CC(F)(F)F)CCC12 (single isomer, unassigned) [Compound 106B, 1-(2-bromophenyl)-5-ethyl-7-hydroxy-2-(2,2,2-trifluoroethyl)-1,2,3,4,4a,5-hexahydrodipyrido[1,2-b:2′,1′-f][1,2,4]triazine-6,8-dione]",0.0878 µM,–
"CCC1(c2ccccc2)CCCC2N(C)C(=O)c3c(O)c(=O)ccn3N21 (single isomer, unassigned) [Compound 22A, 1-ethyl-7-hydroxy-5-methyl-1-phenyl-1,2,3,4,4a,5-hexahydrodipyrido[1,2-b:2′,1′-f][1,2,4]triazine-6,8-dione]",> 8.1 µM,–
"CCN1C(=O)c2c(O)c(=O)ccn2N2C(c3ccccc3F)C(CCC(F)F)CCC12 (single isomer, unassigned) [Compound 101A, 2-(3,3-difluoropropyl)-5-ethyl-1-(2-fluorophenyl)-7-hydroxy-1,2,3,4,4a,5-hexahydrodipyrido[1,2-b:2′,1′-f][1,2,4]triazine-6,8-dione]",0.148 µM,–
"CN1C(=O)c2c(O)c(=O)ccn2N2C1CCCC2(C)c1cccc(OC(F)F)c1 (single isomer, unassigned) [Compound 51A, 1-(3-(difluoromethoxy)phenyl)-7-hydroxy-1,5-dimethyl-1,2,3,4,4a,5-hexahydrodipyrido[1,2-b:2′,1′-f][1,2,4]triazine-6,8-dione]",> 8.1 µM,–
"O=C1c2c(O)c(=O)ccn2N2C(c3ccccc3)CCCC2N1CC1CC1 (single isomer, unassigned) [Compound 56D, 5-(cyclopropylmethyl)-7-hydroxy-1-phenyl-1,2,3,4,4a,5-hexahydrodipyrido[1,2-b:2′,1′-f][1,2,4]triazine-6,8-dione]",0.0377 µM,–
"CN1C(=O)c2c(O)c(=O)ccn2N2C(c3ccccc3)C(O)CCC12 (centres unmarked) [Compound 135B, 2,7-dihydroxy-5-methyl-1-phenyl-1,2,3,4,4a,5-hexahydrodipyrido[1,2-b:2′,1′-f][1,2,4]triazine-6,8-dione]",> 8.1 µM,–
"CN1C(=O)c2c(O)c(=O)ccn2N2C1CCCC2(C)c1ccccc1 (single isomer, unassigned) [Compound 18A, 7-hydroxy-1,5-dimethyl-1-phenyl-1,2,3,4,4a,5-hexahydrodipyrido[1,2-b:2′,1′-f][1,2,4]triazine-6,8-dione]",0.0071 µM,–
"C=CCC1CCC2N(C)C(=O)c3c(O)c(=O)ccn3N2C1c1ccccc1Cl (centres unmarked) [Compound 64D, 2-allyl-1-(2-chlorophenyl)-7-hydroxy-5-methyl-1,2,3,4,4a,5-hexahydrodipyrido[1,2-b:2′,1′-f][1,2,4]triazine-6,8-dione]",0.0046 µM,–
"CN1C(=O)c2c(O)c(=O)ccn2N2C(c3ccccc3C(F)(F)F)CCC12 (single isomer, unassigned) [Compound 15B, 6-hydroxy-4-methyl-1-(2-(trifluoromethyl)phenyl)-2,3,3a,4-tetrahydro-1H-pyrido[2,1-f]pyrrolo[1,2-b][1,2,4]triazine-5,7-dione]",1.45 µM,–
"CN1C(=O)c2c(O)c(=O)ccn2C2C1CCCC2(O)c1ccccc1 (single isomer, unassigned) [Compound 165B, 1,7-dihydroxy-5-methyl-1-phenyl-1,3,4,4a,5,11a-hexahydro-2H-pyrido[1,2-a]quinoxaline-6,8-dione]",> 8.1 µM,–
"CC1CC(c2ccccc2)N2C(C1)N(C)C(=O)c1c(O)c(=O)ccn12 (single isomer, unassigned) [Compound 6A, 7-hydroxy-3,5-dimethyl-1-phenyl-1,2,3,4,4a,5-hexahydrodipyrido[1,2-b:2′,1′-f][1,2,4]triazine-6,8-dione]",0.372 µM,–
"CN1C(=O)c2c(O)c(=O)ccn2N2C(c3cccc(F)c3)C(CC(F)(F)F)CCC12 (single isomer, unassigned) [Compound 121A, 1-(3-fluorophenyl)-7-hydroxy-5-methyl-2-(2,2,2-trifluoroethyl)-1,2,3,4,4a,5-hexahydrodipyrido[1,2-b:2′,1′-f][1,2,4]triazine-6,8-dione]",0.431 µM,–
"Cc1ccccc1C1N2C(CCC13CC1C(C3)C1(F)F)N(C)C(=O)c1c(O)c(=O)ccn12 (single isomer, unassigned) [Compound 69A, 6,6-difluoro-7′-hydroxy-5′-methyl-1′-(o-tolyl)-3′,4′,4a′,5′-tetrahydro-1′H-spiro[bicyclo[3.1.0]hexane-3,2′-dipyrido[1,2-b:2′,1′-f][1,2,4]triazine]-6′,8′-dione]",0.0023 µM,–
